Activity calls are given as the source filed them.
Experiments:
[1] = target: T1, Low molecular weight phosphotyrosine protein phosphatase (Homo sapiens, UniProt P24666); assay type: functional; settings: read-out: IC50_Mean
T1 sequence (P24666 whole entry): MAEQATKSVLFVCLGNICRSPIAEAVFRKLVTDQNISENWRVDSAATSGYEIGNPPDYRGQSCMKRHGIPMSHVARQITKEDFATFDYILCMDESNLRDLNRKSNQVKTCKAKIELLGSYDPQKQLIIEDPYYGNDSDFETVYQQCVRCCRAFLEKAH

[2] = target: T1, Low molecular weight phosphotyrosine protein phosphatase; assay type: functional; settings: read-out: IC50_Mean; remark: listed apart in the source
[3] = target: Ras and Rab interactor 1/Tyrosine-protein kinase ABL1 (Homo sapiens, UniProt P00519+Q13671); assay type: functional;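 also: biochemical TR-FRET dose-response test measuring inhibition of binding between Rin1 and Abl proteins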
Sequence of Ras and Rab interactor 1/Tyrosine-protein kinase ABL1 (P00519 whole entry): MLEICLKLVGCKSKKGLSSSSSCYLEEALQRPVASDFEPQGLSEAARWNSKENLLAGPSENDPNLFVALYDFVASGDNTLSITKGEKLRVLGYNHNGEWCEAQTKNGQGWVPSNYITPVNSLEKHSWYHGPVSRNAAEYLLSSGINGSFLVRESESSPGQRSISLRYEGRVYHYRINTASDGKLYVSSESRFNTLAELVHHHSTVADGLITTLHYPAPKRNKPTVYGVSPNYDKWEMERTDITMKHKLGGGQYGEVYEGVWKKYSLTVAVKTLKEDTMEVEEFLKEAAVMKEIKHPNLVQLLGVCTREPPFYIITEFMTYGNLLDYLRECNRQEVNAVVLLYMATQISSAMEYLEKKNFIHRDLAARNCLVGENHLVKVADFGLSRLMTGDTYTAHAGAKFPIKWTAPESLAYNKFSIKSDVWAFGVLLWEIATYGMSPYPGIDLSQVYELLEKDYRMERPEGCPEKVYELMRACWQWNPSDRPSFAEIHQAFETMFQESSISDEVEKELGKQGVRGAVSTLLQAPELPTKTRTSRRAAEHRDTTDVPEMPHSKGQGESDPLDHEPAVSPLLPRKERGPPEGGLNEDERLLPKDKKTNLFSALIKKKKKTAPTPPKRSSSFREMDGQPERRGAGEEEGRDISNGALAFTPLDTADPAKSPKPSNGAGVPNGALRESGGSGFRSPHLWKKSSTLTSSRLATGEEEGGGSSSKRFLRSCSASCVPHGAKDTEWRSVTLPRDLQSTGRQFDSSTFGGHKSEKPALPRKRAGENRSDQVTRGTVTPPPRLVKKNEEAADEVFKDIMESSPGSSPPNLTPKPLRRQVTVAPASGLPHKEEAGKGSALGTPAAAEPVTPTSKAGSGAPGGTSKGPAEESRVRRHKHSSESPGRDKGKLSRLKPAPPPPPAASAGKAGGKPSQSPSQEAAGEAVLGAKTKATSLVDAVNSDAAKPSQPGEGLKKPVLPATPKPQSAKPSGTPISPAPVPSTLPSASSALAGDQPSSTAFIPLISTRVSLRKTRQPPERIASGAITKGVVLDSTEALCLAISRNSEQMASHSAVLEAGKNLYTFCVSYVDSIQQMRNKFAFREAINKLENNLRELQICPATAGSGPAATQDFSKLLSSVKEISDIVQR
Sequence of Ras and Rab interactor 1/Tyrosine-protein kinase ABL1 (Q13671 whole entry): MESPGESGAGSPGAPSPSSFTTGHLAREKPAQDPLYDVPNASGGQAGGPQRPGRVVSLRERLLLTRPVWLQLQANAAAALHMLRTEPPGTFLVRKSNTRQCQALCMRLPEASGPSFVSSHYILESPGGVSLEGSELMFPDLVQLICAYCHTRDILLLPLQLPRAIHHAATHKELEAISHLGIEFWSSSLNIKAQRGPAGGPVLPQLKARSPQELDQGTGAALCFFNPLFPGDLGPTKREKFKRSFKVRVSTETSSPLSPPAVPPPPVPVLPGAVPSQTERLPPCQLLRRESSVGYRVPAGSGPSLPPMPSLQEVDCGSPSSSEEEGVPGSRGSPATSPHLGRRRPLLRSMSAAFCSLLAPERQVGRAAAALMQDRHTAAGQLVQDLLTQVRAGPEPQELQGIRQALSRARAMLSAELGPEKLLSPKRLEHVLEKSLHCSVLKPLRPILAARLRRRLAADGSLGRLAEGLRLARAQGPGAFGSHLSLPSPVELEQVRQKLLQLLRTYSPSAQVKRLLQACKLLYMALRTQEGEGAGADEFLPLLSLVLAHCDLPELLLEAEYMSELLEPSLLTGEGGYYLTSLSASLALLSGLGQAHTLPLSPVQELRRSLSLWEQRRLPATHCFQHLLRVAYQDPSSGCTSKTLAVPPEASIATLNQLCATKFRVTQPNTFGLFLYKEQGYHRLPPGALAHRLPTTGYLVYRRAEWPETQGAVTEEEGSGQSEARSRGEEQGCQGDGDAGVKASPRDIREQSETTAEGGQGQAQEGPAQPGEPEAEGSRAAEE

Beta Lactamase = Beta Lactamase (Pseudomonas aeruginosa, UniProt Q932Y6); assay: BLA reporter interference, concentration series – BLA reporter cells, FRET fluorescence, artefact control for NOD2-RIPK2 interaction inhibitor project, dose response (AID 651552); assay type: functional, cell-based
Sequence of Beta Lactamase (Q932Y6 whole entry): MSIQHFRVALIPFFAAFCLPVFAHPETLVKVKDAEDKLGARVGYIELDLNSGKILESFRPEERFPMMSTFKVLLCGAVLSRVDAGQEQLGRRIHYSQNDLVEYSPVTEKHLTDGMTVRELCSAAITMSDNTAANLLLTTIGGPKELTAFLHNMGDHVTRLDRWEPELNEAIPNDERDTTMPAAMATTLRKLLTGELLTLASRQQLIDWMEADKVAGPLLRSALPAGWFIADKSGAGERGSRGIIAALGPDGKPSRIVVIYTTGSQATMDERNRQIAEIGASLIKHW

[4] = MIN6 cell viability loss – mouse insulinoma, cytotoxicity control, dose response (AID 2122); assay type: functional;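 also: confirmatory high-throughput counterscreen run to flag cytotoxic compounds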
[5] = decrease of insulin promoter-GFP reporter – imaging, high-content screening, mouse beta cells (AID 1628); assay type: functional; settings: MIN6
[6] = Fluorescence-based cell-based high throughput dose response assay for inhibitors of the interaction of nucleotide-binding oligomerization domain containing 2 (NOD2) and the receptor-interacting serine-threonine kinase 2 (RIPK2).; assay type: functional, Homo sapiens; settings: Homo sapiens
INS1 = assay: INS-1E survival protection against cytokine death – cell-based, luminescence, retest, dose response (AID 449756); assay type: functional; settings: Rattus norvegicus;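 also: cell death triggered by IL-1 beta plus TNF-alpha plus IFN-gamma mixture; protective hits raise ATP signal compared with cytokine alone wells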
[7] = Luminescence Cell-Based Dose Response HTS to Identify Activators of Luciferase Translation or Activity in H4 […] Cells. [Related pubchem assays: 1829 (Project Summary), 1814 (Primary HTS)]; assay type: functional
[8] = target: T2, Zinc finger protein mex-5 (Caenorhabditis elegans, UniProt Q9XUB2); assay: potency of MEX-5 RNA-binding blockers – biochemical, C. elegans, fluorescence polarization, dose response (AID 1960)
T2 sequence (Q9XUB2 whole entry): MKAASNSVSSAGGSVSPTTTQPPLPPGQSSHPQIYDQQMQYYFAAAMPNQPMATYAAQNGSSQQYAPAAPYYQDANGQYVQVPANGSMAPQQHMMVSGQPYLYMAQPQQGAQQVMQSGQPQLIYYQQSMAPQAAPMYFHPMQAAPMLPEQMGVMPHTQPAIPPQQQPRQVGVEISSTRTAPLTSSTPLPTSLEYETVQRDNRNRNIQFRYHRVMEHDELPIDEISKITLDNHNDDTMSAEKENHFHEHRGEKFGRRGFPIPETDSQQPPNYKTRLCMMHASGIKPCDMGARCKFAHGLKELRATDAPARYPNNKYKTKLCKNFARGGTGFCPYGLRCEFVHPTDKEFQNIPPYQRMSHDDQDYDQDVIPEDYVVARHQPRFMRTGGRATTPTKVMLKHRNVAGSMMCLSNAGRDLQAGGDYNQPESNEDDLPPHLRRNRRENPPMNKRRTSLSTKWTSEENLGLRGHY

H4 = assay: Luminescence Cell-Based Dose Response HTS to Identify Activators of 5'UTR Stem-Loop Driven Prion Protein mRNA Translation in H4 Neuroglioblastoma Cells. [Related pubchem assays: 1829 (Project Summary), 1814 (Primary HTS)]; assay type: functional; settings: Homo sapiens
[9] = target: T3, RNA-binding protein pos-1 (Caenorhabditis elegans, UniProt G5EF15); assay: disruptors of C. elegans POS-1 RNA interaction – biochemical, fluorescence polarization, dose response (AID 1964);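 also: purified POS-1 fused to maltose binding protein made in E. coli; potency of compounds blocking POS-1 binding to fluorescent RNA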
T3 sequence (G5EF15 whole entry): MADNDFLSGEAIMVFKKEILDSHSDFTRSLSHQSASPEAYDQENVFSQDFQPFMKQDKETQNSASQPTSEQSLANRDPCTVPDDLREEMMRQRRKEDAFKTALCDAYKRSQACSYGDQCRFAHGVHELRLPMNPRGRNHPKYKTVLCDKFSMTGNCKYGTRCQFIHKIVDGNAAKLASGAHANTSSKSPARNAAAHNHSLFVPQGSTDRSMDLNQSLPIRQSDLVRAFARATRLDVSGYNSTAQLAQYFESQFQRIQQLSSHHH

[10] = Luminescence Cell-Based Dose Confirmation HTS to Identify Activators of 5'UTR Stem-Loop Driven Alpha-Synuclein mRNA Translation in H4 Neuroglioblastoma Cells. [Related pubchem assays: 1829 (Project Summary), 1814 (Primary HTS)]; assay type: functional
[11] = target: T4, Sentrin-specific protease 1 (Homo sapiens, UniProt Q9P0U3); assay: SENP1 catalytic domain blockers, concentration series – biochemical, kinetic FRET, dose response (AID 651697); assay type: functional; settings: read-out: IC50_Mean
T4 sequence (Q9P0U3 whole entry): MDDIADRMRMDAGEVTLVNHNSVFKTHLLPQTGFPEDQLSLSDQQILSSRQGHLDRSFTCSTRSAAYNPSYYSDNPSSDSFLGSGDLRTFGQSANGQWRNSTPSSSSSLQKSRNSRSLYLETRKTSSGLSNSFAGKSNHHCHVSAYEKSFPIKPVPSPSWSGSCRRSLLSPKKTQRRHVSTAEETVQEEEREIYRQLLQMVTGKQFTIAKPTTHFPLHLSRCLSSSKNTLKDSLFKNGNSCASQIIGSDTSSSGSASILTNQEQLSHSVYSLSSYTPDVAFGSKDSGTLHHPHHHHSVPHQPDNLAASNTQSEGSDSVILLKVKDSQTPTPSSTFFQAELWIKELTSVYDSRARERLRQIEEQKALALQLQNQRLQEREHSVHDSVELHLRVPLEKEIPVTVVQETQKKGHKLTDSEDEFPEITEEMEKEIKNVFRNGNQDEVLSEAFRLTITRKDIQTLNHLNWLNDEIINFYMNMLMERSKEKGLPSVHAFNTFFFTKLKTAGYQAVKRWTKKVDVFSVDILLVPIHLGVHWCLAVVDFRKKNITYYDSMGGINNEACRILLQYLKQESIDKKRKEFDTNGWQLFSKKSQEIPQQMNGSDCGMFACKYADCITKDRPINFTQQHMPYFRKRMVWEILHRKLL

[12] = target: T5, Calpain-2 catalytic subunit (Sus scrofa, UniProt P43367); assay: m-calpain protease blockers, concentration series – biochemical, fluorogenic peptide substrate, dose response (AID 1420); assay type: functional
T5 sequence (P43367 whole entry): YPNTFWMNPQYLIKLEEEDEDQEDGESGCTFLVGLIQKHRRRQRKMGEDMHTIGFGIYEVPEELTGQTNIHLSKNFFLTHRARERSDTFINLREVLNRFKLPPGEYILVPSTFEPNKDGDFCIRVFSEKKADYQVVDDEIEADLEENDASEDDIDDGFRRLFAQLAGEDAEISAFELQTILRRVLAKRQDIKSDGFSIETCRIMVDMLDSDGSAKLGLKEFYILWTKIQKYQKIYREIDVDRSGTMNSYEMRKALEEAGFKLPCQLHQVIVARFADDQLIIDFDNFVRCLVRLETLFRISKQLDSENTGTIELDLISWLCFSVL

[13] = target: Photoreceptor-specific nuclear receptor (Homo sapiens, UniProt Q9Y5X4); assay type: functional, cell-based;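 also: CHO-S cells with Gal4-NCOR and VP16-NR2E3 two-hybrid luciferase reporter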
Sequence of Photoreceptor-specific nuclear receptor (Q9Y5X4 whole entry, the tested form may be a part): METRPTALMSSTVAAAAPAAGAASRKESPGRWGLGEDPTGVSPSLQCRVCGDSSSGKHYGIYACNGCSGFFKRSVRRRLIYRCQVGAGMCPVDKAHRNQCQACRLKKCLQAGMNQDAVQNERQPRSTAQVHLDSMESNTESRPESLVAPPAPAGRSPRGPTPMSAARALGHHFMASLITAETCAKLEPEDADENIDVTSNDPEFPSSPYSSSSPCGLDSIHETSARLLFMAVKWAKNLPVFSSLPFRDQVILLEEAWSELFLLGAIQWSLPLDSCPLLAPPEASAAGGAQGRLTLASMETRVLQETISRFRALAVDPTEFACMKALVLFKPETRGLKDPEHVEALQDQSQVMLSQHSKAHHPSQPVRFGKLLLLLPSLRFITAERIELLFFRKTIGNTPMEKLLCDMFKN

[14] = target: T6, High affinity choline transporter 1 (Homo sapiens, UniProt Q9GZV3); assay: human choline transporter blockers, potency – cell-based, 10-point CRC, membrane potential dye, dose response (AID 588401); assay type: functional;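 also: membrane potential dye fluorescence of choline-evoked depolarization via CHT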
T6 sequence (Q9GZV3 whole entry): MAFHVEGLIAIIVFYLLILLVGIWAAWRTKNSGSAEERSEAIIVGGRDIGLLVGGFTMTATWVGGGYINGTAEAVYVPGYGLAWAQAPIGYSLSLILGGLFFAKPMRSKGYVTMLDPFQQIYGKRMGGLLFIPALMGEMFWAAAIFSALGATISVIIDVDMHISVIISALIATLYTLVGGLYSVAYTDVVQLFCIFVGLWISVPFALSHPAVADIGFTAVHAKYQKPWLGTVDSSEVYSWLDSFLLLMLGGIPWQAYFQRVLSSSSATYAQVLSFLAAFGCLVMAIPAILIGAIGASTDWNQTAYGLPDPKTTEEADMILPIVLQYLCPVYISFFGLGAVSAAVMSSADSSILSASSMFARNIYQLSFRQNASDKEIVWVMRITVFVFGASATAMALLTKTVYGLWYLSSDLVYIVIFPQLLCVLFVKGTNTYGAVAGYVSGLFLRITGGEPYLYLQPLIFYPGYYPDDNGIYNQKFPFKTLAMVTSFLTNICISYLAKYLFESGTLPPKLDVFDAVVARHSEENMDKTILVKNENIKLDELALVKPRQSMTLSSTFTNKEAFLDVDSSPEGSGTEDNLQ

[15] = target: T7, Short transient receptor potential channel 4 (Mus musculus, UniProt Q9QUQ5); assay: block of DAMGO-driven TRPC4 calcium entry – cell-based, HEK293 TRPC4/mu-opioid, Fluo-4 calcium, dose response (AID 434942); assay type: functional;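 also: potency of inhibitors blocking the TRPC4 calcium response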
T7 sequence (Q9QUQ5 whole entry): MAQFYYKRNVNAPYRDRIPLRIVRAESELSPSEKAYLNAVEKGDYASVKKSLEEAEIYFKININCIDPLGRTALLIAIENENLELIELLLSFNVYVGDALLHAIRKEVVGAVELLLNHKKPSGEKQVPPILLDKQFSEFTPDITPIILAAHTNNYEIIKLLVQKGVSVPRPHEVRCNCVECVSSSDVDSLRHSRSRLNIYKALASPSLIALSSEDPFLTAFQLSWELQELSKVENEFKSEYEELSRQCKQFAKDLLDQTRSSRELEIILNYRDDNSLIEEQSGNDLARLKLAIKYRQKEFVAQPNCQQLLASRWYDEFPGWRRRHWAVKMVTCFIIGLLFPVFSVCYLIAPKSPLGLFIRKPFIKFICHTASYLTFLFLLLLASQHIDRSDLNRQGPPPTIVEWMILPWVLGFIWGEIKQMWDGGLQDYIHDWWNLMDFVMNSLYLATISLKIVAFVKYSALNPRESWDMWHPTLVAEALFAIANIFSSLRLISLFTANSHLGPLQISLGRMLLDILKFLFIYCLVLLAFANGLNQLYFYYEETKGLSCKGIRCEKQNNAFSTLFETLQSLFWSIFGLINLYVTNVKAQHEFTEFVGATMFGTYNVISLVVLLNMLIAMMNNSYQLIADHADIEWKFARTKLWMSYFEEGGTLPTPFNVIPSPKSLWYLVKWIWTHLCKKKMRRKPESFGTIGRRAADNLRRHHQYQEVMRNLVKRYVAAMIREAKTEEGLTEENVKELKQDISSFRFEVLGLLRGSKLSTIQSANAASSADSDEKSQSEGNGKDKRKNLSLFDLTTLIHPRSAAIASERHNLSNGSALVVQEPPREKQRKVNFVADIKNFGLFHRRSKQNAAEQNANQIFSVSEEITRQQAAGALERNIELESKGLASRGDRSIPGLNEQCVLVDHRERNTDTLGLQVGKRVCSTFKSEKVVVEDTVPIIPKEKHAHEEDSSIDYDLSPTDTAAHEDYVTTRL

[16] = target: T6, High affinity choline transporter 1; assay: human choline transporter blockers, potency – cell-based, 5-point CRC, membrane potential dye, dose response (AID 504840); assay type: functional
[17] = target: Hepatocyte nuclear factor 4-alpha (Homo sapiens, UniProt P41235); assay type: functional, cell-based;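 also: biochemical luminescence-based dose-response counterscreen measuring inhibition of HNF4 dimerization, run alongside a screen for blockers of ABHD5–perilipin-5 interaction; split luciferase complementation of HNF4 fusion proteins in cell lysate measuring dimerization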
Fatty acid synthase [18] = target: T8, Fatty acid synthase (Homo sapiens, UniProt P49327); assay: inhibition of human FAS-TE enzyme activity – biochemical, kinetic fluorescence intensity, dose response (AID 624326); assay type: functional;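 also: rate of fluorescence rise from hydrolysis of a fluorogenic O-methyl fluorescein ester substrate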
T8 sequence (P49327 whole entry): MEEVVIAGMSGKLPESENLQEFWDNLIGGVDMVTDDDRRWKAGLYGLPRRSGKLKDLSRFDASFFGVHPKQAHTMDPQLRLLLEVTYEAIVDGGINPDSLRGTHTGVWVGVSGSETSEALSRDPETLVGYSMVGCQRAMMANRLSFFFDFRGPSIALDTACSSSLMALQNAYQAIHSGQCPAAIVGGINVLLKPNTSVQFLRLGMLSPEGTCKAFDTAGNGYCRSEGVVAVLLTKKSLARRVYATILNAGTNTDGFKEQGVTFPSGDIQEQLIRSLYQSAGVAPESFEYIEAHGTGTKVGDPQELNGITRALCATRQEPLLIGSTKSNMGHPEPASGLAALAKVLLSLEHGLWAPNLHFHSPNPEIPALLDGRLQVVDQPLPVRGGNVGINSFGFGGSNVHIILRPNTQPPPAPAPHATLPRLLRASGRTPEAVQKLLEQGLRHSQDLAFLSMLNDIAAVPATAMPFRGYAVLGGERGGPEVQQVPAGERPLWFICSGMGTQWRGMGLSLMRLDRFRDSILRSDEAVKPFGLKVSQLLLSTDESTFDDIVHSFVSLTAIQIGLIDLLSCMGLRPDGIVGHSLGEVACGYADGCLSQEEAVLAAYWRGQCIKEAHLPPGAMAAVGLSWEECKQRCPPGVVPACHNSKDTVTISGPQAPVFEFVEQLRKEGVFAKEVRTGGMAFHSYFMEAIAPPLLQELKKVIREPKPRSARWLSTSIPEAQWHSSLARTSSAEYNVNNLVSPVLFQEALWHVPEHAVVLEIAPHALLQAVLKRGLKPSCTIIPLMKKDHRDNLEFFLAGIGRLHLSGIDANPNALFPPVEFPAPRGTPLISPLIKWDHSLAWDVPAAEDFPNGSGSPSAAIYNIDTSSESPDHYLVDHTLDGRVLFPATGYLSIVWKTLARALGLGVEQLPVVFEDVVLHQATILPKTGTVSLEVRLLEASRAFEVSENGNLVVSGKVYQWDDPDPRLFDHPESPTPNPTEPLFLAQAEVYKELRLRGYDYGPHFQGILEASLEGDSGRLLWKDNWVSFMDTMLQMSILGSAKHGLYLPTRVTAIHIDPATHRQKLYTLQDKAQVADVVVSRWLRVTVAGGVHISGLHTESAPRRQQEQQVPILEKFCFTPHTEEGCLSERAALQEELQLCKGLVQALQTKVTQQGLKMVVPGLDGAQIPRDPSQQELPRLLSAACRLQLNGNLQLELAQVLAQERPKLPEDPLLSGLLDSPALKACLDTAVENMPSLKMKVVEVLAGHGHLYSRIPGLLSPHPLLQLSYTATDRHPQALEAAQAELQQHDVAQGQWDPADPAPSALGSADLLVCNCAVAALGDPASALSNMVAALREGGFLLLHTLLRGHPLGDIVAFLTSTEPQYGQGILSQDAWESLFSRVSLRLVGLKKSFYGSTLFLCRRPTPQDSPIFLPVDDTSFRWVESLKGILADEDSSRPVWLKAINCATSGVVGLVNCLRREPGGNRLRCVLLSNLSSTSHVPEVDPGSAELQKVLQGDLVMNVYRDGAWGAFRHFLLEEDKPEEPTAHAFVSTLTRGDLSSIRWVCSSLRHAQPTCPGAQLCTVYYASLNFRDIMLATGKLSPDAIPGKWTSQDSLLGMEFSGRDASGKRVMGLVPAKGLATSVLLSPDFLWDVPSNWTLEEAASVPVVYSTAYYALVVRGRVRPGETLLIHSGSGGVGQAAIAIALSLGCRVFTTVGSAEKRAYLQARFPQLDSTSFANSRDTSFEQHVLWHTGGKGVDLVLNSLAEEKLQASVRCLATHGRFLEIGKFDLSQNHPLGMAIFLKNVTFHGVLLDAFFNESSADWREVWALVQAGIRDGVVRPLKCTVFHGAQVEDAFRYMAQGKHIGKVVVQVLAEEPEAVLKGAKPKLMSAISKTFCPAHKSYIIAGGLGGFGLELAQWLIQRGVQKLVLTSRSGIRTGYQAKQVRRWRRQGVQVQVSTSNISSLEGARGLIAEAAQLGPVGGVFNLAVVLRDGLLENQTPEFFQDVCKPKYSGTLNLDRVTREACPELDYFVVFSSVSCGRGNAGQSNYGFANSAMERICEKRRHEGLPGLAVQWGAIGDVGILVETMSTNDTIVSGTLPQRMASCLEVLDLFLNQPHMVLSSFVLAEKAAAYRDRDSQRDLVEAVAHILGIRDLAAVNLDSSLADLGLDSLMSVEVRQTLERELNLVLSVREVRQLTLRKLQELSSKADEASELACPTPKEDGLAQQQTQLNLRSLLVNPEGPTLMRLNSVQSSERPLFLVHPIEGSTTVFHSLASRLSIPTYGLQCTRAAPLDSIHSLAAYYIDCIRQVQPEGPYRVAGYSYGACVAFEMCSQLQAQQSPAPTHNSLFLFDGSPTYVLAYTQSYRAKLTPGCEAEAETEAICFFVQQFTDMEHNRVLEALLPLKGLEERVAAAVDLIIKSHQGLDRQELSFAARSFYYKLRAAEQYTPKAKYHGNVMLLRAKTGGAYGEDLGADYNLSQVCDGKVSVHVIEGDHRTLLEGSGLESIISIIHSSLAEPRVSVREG

Fatty acid synthase [19] = target: T8, Fatty acid synthase; assay: inhibition of human FAS-TE enzyme activity – biochemical, endpoint fluorescence intensity, uHTS hits, dose response (AID 624327); assay type: functional;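 also: fluorescence from hydrolysis of an O-methyl fluorescein acyl ester substrate by the enzyme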

## CN(C)c1nc(N)nc(/C(C#N)=C/C2CC3C=CC2C3)n1 (configuration not stated)
[1]
  IC50: 10.6 µM (active)
[2]
  IC50: 25.2 µM (inactive)

## COc1ccc(CCNC(=O)CSc2nc(C)nc3c2c(=O)n(C)c(=O)n3C)cc1OC
[3]
  IC50: 13.9 µM (inactive)

## Cc1cc(N2CCN(C)CC2)ccc1NC(=O)c1c2c(nc3ccccc13)CCN(Cc1ccccc1)C2
Beta Lactamase
  IC50: 12.3 µM (inactive)
[4]
  IC50: 1.05 µM (active)
[5]
  IC50: 1.37 µM (active)
[6]
  IC50: 11 µM (inactive)
INS1
  AC50: 4.71 µM (active)

## COc1ccc(P2(=O)Nc3ccccc3N2)cc1
[7]
  EC50: 10.5 µM (active)
[8]
  EC50: 103 µM (active)
H4
  EC50: 7.44 µM (active)
[9]
  EC50: > 300 µM (not active)
[10]
  EC50: > 120 µM (not active)
[11]
  IC50: 74.3 µM (inactive)

## O=c1c(Cl)c(N2CCN(c3ccc(F)cc3)CC2)cnn1C12CC3CC(CC(C3)C1)C2
[12]
  IC50: > 50 µM (not active)
[13]
  IC50: 1.93 µM (active)

## COc1cccc(Nc2c(Nc3cccc(OC)c3)c(=O)c2=O)c1
[1]
  IC50: 18.4 µM (active)
[2]
  IC50: 10.4 µM (active)

## CC1CCCCN1CCCNC(=O)c1nn(C)c2c1CSc1ccccc1-2 (configuration not stated)
[14]
  IC50: 10.6 µM (active)
[15]
  EC50: 4.22 µM (active)
[16]
  IC50: 5.6 µM (active)

## CCCCCc1c(-c2ccc(OC)c(OC)c2)ncn1CCc1ccccc1OC
[13]
  IC50: 7.43 µM (active)

## CC(C)(C)NC(=O)C(C1CC1)n1c(=O)c(-c2ccco2)nc2ccccc21 (configuration not stated)
[17]
  IC50: 1.72 µM (active)

## CCOC(=O)[C@]12Cc3cc(Cl)ccc3[C@H]1N(C1CCCCC1)C(=O)c1ccccc12
Beta Lactamase
  IC50: 19.9 µM (inactive)
Fatty acid synthase [18]
  IC50: 4.57 µM (active)
Fatty acid synthase [19]
  IC50: 6.4 µM (active)
[6]
  IC50: 1.45 µM (active)
